Where “and” joins values, the source holds several entries; their conditions need not be identical. Equal entries are not always repeated. ± gives the uncertainty stated by the source.
Experiment: xn = mol fraction of the nth substance listed

CCNCCO + CCCCOCCO
viscosity, 101.33 kPa
Conditions	293.15 K	298.15 K	303.15 K	308.15 K	313.15 K	318.15 K	323.15 K
x1 = 0.1	3.962 ± 0.086 mPa·s	3.42 ± 0.074 mPa·s	2.977 ± 0.064 mPa·s	2.61 ± 0.056 mPa·s	2.304 ± 0.053 mPa·s	2.046 ± 0.052 mPa·s	1.828 ± 0.052 mPa·s
x1 = 0.13	3.96 ± 0.09 mPa·s	3.42 ± 0.08 mPa·s	2.98 ± 0.07 mPa·s	2.61 ± 0.06 mPa·s	2.3 ± 0.1 mPa·s	2.05 ± 0.05 mPa·s	1.83 ± 0.04 mPa·s
x1 = 0.2	4.804 ± 0.11 mPa·s	4.103 ± 0.088 mPa·s	3.536 ± 0.076 mPa·s	3.07 ± 0.066 mPa·s	2.685 ± 0.058 mPa·s	2.365 ± 0.053 mPa·s	2.096 ± 0.053 mPa·s
x1 = 0.36	5.75 ± 0.13 mPa·s	4.86 ± 0.11 mPa·s	4.15 ± 0.09 mPa·s	3.57 ± 0.08 mPa·s	3.09 ± 0.07 mPa·s	2.7 ± 0.1 mPa·s	2.38 ± 0.05 mPa·s
x1 = 0.4	5.753 ± 0.12 mPa·s	4.86 ± 0.11 mPa·s	4.146 ± 0.089 mPa·s	3.567 ± 0.077 mPa·s	3.094 ± 0.066 mPa·s	2.703 ± 0.058 mPa·s	2.377 ± 0.053 mPa·s
x1 = 0.5	6.822 ± 0.15 mPa·s	5.698 ± 0.12 mPa·s	4.811 ± 0.1 mPa·s	4.101 ± 0.088 mPa·s	3.527 ± 0.076 mPa·s	3.057 ± 0.065 mPa·s	2.67 ± 0.057 mPa·s
x1 = 0.57	7.99 ± 0.18 mPa·s	6.61 ± 0.15 mPa·s	5.53 ± 0.12 mPa·s	4.67 ± 0.1 mPa·s	3.98 ± 0.09 mPa·s	3.43 ± 0.08 mPa·s	2.97 ± 0.07 mPa·s
x1 = 0.6	7.994 ± 0.17 mPa·s	6.608 ± 0.14 mPa·s	5.525 ± 0.12 mPa·s	4.67 ± 0.1 mPa·s	3.984 ± 0.085 mPa·s	3.429 ± 0.073 mPa·s	2.975 ± 0.064 mPa·s
x1 = 0.7	9.303 ± 0.2 mPa·s	7.606 ± 0.16 mPa·s	6.3 ± 0.14 mPa·s	5.278 ± 0.11 mPa·s	4.466 ± 0.095 mPa·s	3.815 ± 0.082 mPa·s	3.288 ± 0.07 mPa·s
x1 = 0.8	10.71 ± 0.23 mPa·s and 12.33 ± 0.26 mPa·s	8.67 ± 0.19 mPa·s and 9.873 ± 0.21 mPa·s	7.112 ± 0.15 mPa·s and 8.025 ± 0.17 mPa·s	5.907 ± 0.13 mPa·s and 6.61 ± 0.14 mPa·s	4.962 ± 0.11 mPa·s and 5.51 ± 0.12 mPa·s	4.21 ± 0.09 mPa·s and 4.644 ± 0.099 mPa·s	3.606 ± 0.077 mPa·s and 3.953 ± 0.084 mPa·s
x1 = 0.9	14.15 ± 0.3 mPa·s	11.21 ± 0.24 mPa·s	9.023 ± 0.19 mPa·s	7.368 ± 0.16 mPa·s	6.098 ± 0.13 mPa·s	5.103 ± 0.11 mPa·s	4.316 ± 0.092 mPa·s

CCCC[n+]1ccn(C)c1.N#C[C-](C#N)C#N + CCCCn1cc[n+](C)c1.O=S(=O)([N-]S(=O)(=O)C(F)(F)F)C(F)(F)F
Conditions	viscosity [mPa·s]
298.15 K, 100 kPa, x2 = 0.751	43.15 ± 2.2

CC(C)OCCO + CCCN
viscosity [mPa·s], 101.33 kPa
Conditions	298.15 K	308.15 K	318.15 K
x1 = 0.0207	0.381 ± 0.004	0.347 ± 0.004	0.305 ± 0.004
x1 = 0.0475	0.413 ± 0.004	0.372 ± 0.004	0.328 ± 0.004
x1 = 0.0745	0.451 ± 0.005	0.398 ± 0.004	0.35 ± 0.004
x1 = 0.1534	0.575 ± 0.006	0.493 ± 0.005	0.425 ± 0.005
x1 = 0.2413	0.732 ± 0.008	0.615 ± 0.007	0.517 ± 0.006
x1 = 0.2917	0.841 ± 0.009	0.702 ± 0.007	0.578 ± 0.006
x1 = 0.3559	0.992 ± 0.01	0.808 ± 0.009	0.662 ± 0.007
x1 = 0.4223	1.147 ± 0.012	0.935 ± 0.01	0.746 ± 0.008
x1 = 0.4366	1.183 ± 0.013	0.966 ± 0.01	0.767 ± 0.008
x1 = 0.5416	1.445 ± 0.016	1.145 ± 0.013	0.905 ± 0.01
x1 = 0.6413	1.681 ± 0.019	1.319 ± 0.015	1.032 ± 0.012
x1 = 0.7365	1.875 ± 0.022	1.464 ± 0.017	1.142 ± 0.013
x1 = 0.8564	2.047 ± 0.024	1.577 ± 0.019	1.252 ± 0.015
x1 = 0.9246	2.077 ± 0.025	1.617 ± 0.02	1.283 ± 0.016
x2 = 0.0101	2.099 ± 0.026	1.645 ± 0.021	1.309 ± 0.017

CCOCCOCCOCC + CCCN
298.15 K, 101 kPa
Conditions	viscosity [mPa·s]
x1 = 0.005	0.361 ± 0.007
x1 = 0.0106	0.367 ± 0.007
x1 = 0.0197	0.379 ± 0.007
x1 = 0.0413	0.402 ± 0.007
x1 = 0.0623	0.423 ± 0.007
x1 = 0.0897	0.451 ± 0.007
x1 = 0.1329	0.498 ± 0.007
x1 = 0.1762	0.538 ± 0.008
x1 = 0.2138	0.572 ± 0.008
x1 = 0.2434	0.6 ± 0.008
x1 = 0.2446	0.603 ± 0.008
x1 = 0.2849	0.636 ± 0.008
x1 = 0.2887	0.64 ± 0.008
x1 = 0.3251	0.672 ± 0.009
x1 = 0.3686	0.709 ± 0.009
x1 = 0.4053	0.737 ± 0.009
x1 = 0.4615	0.786 ± 0.01
x1 = 0.5261	0.848 ± 0.01
x1 = 0.5564	0.875 ± 0.01
x1 = 0.6025	0.919 ± 0.011
x1 = 0.6358	0.951 ± 0.011
x1 = 0.6749	0.988 ± 0.012
x1 = 0.7261	1.038 ± 0.012
x1 = 0.7852	1.09 ± 0.013
x1 = 0.8437	1.152 ± 0.014
x1 = 0.8917	1.201 ± 0.014
x1 = 0.9396	1.235 ± 0.015
x1 = 0.9698	1.248 ± 0.015

Source: the CheMixHub viscosity set
